Test results: US8017612B2, “Piperazine compound and use thereof as a HCV polymerase inhibitor” (priority 2006, dated 2011)
Counter-ions that a name gives are not always drawn.

Columns and labels:
[1] = target: T1, HCV polymerase (NS5B) type 1a (Hepatitis C virus genotype 1a, UniProt P26664); assay: Assay of enzyme (HCV polymerase) inhibitory activity, type 1a enzyme; assay type: biochemical, HCV type 1a (cloned from the blood of patients); details: HCV polymerase inhibitory activity (IC50), 1a, type 1a enzyme 1.5 μg/ml, 25° C., 60 min
T1 construct: made in house; host or cells: Escherichia coli (by the 'similar method' of the 1b enzyme)
Summary of the method: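 His-tagged NS5B, C-terminal 47 residues deleted, type 1a at 1.5 μg/ml, with 5 μg/ml HCV 3′UTR substrate RNA, 50 μM ATP/GTP/CTP, 2 μM UTP plus [3H]UTP, pH 7.5 Tris, 5 mM MgCl2; 60 min at 25° C. TCA-precipitated RNA counted by scintillation; IC50 from radioactivity with vs. without compound.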

[2] = target: T2, HCV polymerase (NS5B) type 1b (Hepatitis C virus genotype 1b, UniProt P26663); assay: Assay of enzyme (HCV polymerase) inhibitory activity, type 1b enzyme; assay type: biochemical, HCV BK strain (type 1b); details: HCV polymerase inhibitory activity (IC50), 1b, type 1b enzyme 0.5 μg/ml, 25° C., 60 min
T2 construct: a region encoding NS5B (J Virol 1991 March, 65(3), 1105-13, 544 amino acids after deletion of 47 amino acids on the C-terminal); 6xHis (C); made in house; host or cells: Escherichia coli
Summary of the method: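 His-tagged, C-terminally truncated NS5B (BK strain, 1b; 0.5 μg/ml) incubated with compound 60 min at 25 °C on 3′UTR-derived substrate RNA (5 μg/ml), 50 μM ATP/GTP/CTP, 2 μM UTP plus [3H]UTP, pH 7.5. Acid-precipitated RNA counted; IC50 from radioactivity with and without compound.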

CN(C)c1ccc(CNC(=O)C2CN(C(=O)CCNC(=O)OC(C)(C)C)CCN2S(=O)(=O)c2ccc(I)cc2)cc1 (stereo not drawn) [Example 87, {3-[3-(4-dimethylamino-benzylcarbamoyl)-4-(4-iodo-benzenesulfonyl)-piperazin-1-yl]-3-oxo-propyl}-carbamic acid tert-butyl ester]
IC50 [1]: > 1000 nM
IC50 [2]: > 1000 nM

CN(C)c1ccc(CNC(=O)C2CN(C(=O)CN)CCN2S(=O)(=O)c2ccc(I)cc2)cc1 (stereo not drawn) [Example 88, 4-(2-amino-acetyl)-1-(4-iodo-benzenesulfonyl)-piperazine-2-carboxylic acid 4-dimethylamino-benzylamide hydrochloride]
IC50 [1]: > 1000 nM
IC50 [2]: > 1000 nM

CN(C)c1ccc(CNC(=O)C2CN(C(=O)CCN)CCN2S(=O)(=O)c2ccc(I)cc2)cc1 (stereo not drawn) [Example 89, 4-(3-amino-propionyl)-1-(4-iodo-benzenesulfonyl)-piperazine-2-carboxylic acid 4-dimethylamino-benzylamide hydrochloride]
IC50 [1]: > 1000 nM
IC50 [2]: > 1000 nM

CC(=O)N1CCN(S(=O)(=O)c2ccc(C(C)C)cc2)C(C(=O)NCc2ccc(N)cc2)C1 (stereo not drawn) [Example 90, 4-acetyl-1-(4-isopropyl-benzenesulfonyl)-piperazine-2-carboxylic acid 4-amino-benzylamide]
IC50 [1]: > 1000 nM
IC50 [2]: > 1000 nM

CCCCc1ccc(S(=O)(=O)N2CCN(C(C)=O)CC2C(=O)NCc2ccc(C(F)(F)F)cc2)cc1 (stereo not drawn) [Example 91, 4-acetyl-1-(4-butyl-benzenesulfonyl)-piperazine-2-carboxylic acid 4-trifluoromethyl-benzylamide]
IC50 [1]: > 1000 nM
IC50 [2]: > 1000 nM

CC(=O)N1CCN(S(=O)(=O)c2ccc(N(C)C)cc2)C(C(=O)NCc2ccc(C(F)(F)F)cc2)C1 (stereo not drawn) [Example 92, 4-acetyl-1-(4-dimethylamino-benzenesulfonyl)-piperazine-2-carboxylic acid 4-trifluoromethyl-benzylamide]
IC50 [1]: > 1000 nM
IC50 [2]: > 1000 nM

CC(=O)N1CCN(S(=O)(=O)c2ccc(N)cc2)C(C(=O)NCc2ccc(C(F)(F)F)cc2)C1 (stereo not drawn) [Example 93, 4-acetyl-1-(4-amino-benzenesulfonyl)-piperazine-2-carboxylic acid 4-trifluoromethyl-benzylamide hydrochloride]
IC50 [1]: > 1000 nM
IC50 [2]: > 1000 nM

COC(=O)CN1CCN(S(=O)(=O)c2ccc(I)cc2)C(C(=O)NCc2ccc(N(C)C)cc2)C1 (stereo not drawn) [Example 94, [3-(4-dimethylamino-benzylcarbamoyl)-4-(4-iodo-benzenesulfonyl)-piperazin-1-yl]-acetic acid methyl ester]
IC50 [1]: > 1000 nM
IC50 [2]: > 1000 nM

CN(C)CC(=O)N1CCN(S(=O)(=O)c2ccc(I)cc2)C(C(=O)NCc2ccc(N(C)C)cc2)C1 (stereo not drawn) [Example 95, 4-(2-dimethylamino-acetyl)-1-(4-iodo-benzenesulfonyl)-piperazine-2-carboxylic acid 4-dimethylamino-benzylamide]
IC50 [1]: > 1000 nM
IC50 [2]: > 1000 nM

CN(C)c1ccc(CNC(=O)C2CN(CC(=O)O)CCN2S(=O)(=O)c2ccc(I)cc2)cc1 (stereo not drawn) [Example 96, [3-(4-dimethylamino-benzylcarbamoyl)-4-(4-iodo-benzenesulfonyl)-piperazin-1-yl]-acetic acid]
IC50 [1]: > 1000 nM
IC50 [2]: > 1000 nM

CCC(C)(C)c1ccc(S(=O)(=O)N2CCN(C(C)=O)CC2C(=O)NCc2ccc(C(F)(F)F)cc2)cc1 (stereo not drawn) [Example 97, 4-acetyl-1-[4-(1,1-dimethyl-propyl)-benzenesulfonyl]-piperazine-2-carboxylic acid 4-trifluoromethyl-benzylamide]
IC50 [1]: > 1000 nM
IC50 [2]: > 1000 nM

CC(=O)N1CCN(S(=O)(=O)c2ccc(C(C)C)cc2)C(C(=O)NCc2ccc(NC(=O)C(C)(C)C)cc2)C1 (stereo not drawn) [Example 98, 4-acetyl-1-(4-isopropyl-benzenesulfonyl)-piperazine-2-carboxylic acid 4-(2,2-dimethyl-propionylamino)-benzylamide]
IC50 [1]: > 1000 nM
IC50 [2]: > 1000 nM

CC(=O)N1CCN(S(=O)(=O)c2ccc(C(C)C)cc2)C(C(=O)NCc2ccc(C(=O)O)cc2)C1 (stereo not drawn) [Example 99, 4-({[4-acetyl-1-(4-isopropyl-benzenesulfonyl)-piperazine-2-carbonyl]-amino}-methyl)-benzoic acid]
IC50 [1]: > 1000 nM
IC50 [2]: > 1000 nM

CC(=O)N1CCN(S(=O)(=O)c2ccc(C(C)C)cc2)C(C(=O)NCc2ccc(Cl)c(Cl)c2)C1 (stereo not drawn) [Example 100, 4-acetyl-1-(4-isopropyl-benzenesulfonyl)-piperazine-2-carboxylic acid 3,4-dichloro-benzylamide]
IC50 [1]: > 1000 nM
IC50 [2]: > 1000 nM

CC(=O)N1CCN(S(=O)(=O)c2ccc(C(C)C)cc2)C(C(=O)NCc2ccc(Cl)cc2Cl)C1 (stereo not drawn) [Example 101, 4-acetyl-1-(4-isopropyl-benzenesulfonyl)-piperazine-2-carboxylic acid 2,4-dichloro-benzylamide]
IC50 [1]: > 1000 nM
IC50 [2]: > 1000 nM

CN(C)c1ccc(CNC(=O)C2CN(C(=O)CN3CCCCC3)CCN2S(=O)(=O)c2ccc(I)cc2)cc1 (stereo not drawn) [Example 102, 1-(4-iodo-benzenesulfonyl)-4-(2-piperidin-1-yl-acetyl)-piperazine-2-carboxylic acid 4-dimethylamino-benzylamide]
IC50 [1]: > 1000 nM
IC50 [2]: > 1000 nM

CC(C)c1ccc(S(=O)(=O)N2CCN(C3=NCCN3)CC2C(=O)NCc2ccc(C(F)(F)F)cc2)cc1 (stereo not drawn) [Example 103, 4-(4,5-dihydro-1H-imidazol-2-yl)-1-(4-isopropyl-benzenesulfonyl)-piperazine-2-carboxylic acid 4-trifluoromethyl-benzylamide]
IC50 [1]: > 1000 nM
IC50 [2]: > 1000 nM

CN(C)c1ccc(CNC(=O)C2CN(C(=O)CN3CCOCC3)CCN2S(=O)(=O)c2ccc(I)cc2)cc1 (stereo not drawn) [Example 104, 1-(4-iodo-benzenesulfonyl)-4-(2-morpholin-4-yl-acetyl)-piperazine-2-carboxylic acid 4-dimethylamino-benzylamide]
IC50 [1]: > 1000 nM
IC50 [2]: > 1000 nM

CN(C)c1ccc(CNC(=O)C2CN(C(=O)CNCc3ccccc3)CCN2S(=O)(=O)c2ccc(I)cc2)cc1 (stereo not drawn) [Example 105, 4-(2-benzylamino-acetyl)-1-(4-iodo-benzenesulfonyl)-piperazine-2-carboxylic acid 4-dimethylamino-benzylamide]
IC50 [1]: > 1000 nM
IC50 [2]: > 1000 nM

COC(=O)c1ccc(S(=O)(=O)N2CCN(C(C)=O)CC2C(=O)NCc2ccc(C(F)(F)F)cc2)cc1 (stereo not drawn) [Example 106, 4-[4-acetyl-2-(4-trifluoromethyl-benzylcarbamoyl)-piperazine-1-sulfonyl]-benzoic acid methyl ester]
IC50 [1]: > 1000 nM
IC50 [2]: > 1000 nM

CC(=O)N1CCN(S(=O)(=O)c2ccc(C(=O)O)cc2)C(C(=O)NCc2ccc(C(F)(F)F)cc2)C1 (stereo not drawn) [Example 107, 4-[4-acetyl-2-(4-trifluoromethyl-benzylcarbamoyl)-piperazine-1-sulfonyl]-benzoic acid]
IC50 [1]: > 1000 nM
IC50 [2]: > 1000 nM

CC(=O)N1CCN(S(=O)(=O)c2ccc(C(C)C)cc2)C(C(=O)NCc2ccc(-c3cnn(C)c3)cc2)C1 (stereo not drawn) [Example 108, 4-acetyl-1-(4-isopropyl-benzenesulfonyl)-piperazine-2-carboxylic acid 4-(1-methyl-1H-pyrazol-4-yl)-benzylamide]
IC50 [1]: > 1000 nM
IC50 [2]: > 1000 nM

CC(=O)N1CCN(S(=O)(=O)c2ccc(C(C)C)cc2)C(C(=O)NCc2ccc(N3CCCCC3)cc2)C1 (stereo not drawn) [Example 109, 4-acetyl-1-(4-isopropyl-benzenesulfonyl)-piperazine-2-carboxylic acid 4-piperidin-1-yl-benzylamide]
IC50 [1]: > 1000 nM
IC50 [2]: > 1000 nM

CCCN(CCC)CC(=O)N1CCN(S(=O)(=O)c2ccc(I)cc2)C(C(=O)NCc2ccc(N(C)C)cc2)C1 (stereo not drawn) [Example 110, 4-(2-dipropylamino-acetyl)-1-(4-iodo-benzenesulfonyl)-piperazine-2-carboxylic acid 4-dimethylamino-benzylamide]
IC50 [1]: > 1000 nM
IC50 [2]: > 1000 nM

CC(C)c1ccc(S(=O)(=O)N2CCN(C(N)=S)CC2C(=O)NCc2ccc(C(F)(F)F)cc2)cc1 (stereo not drawn) [Example 111, 1-(4-isopropyl-benzenesulfonyl)-4-thiocarbamoyl-piperazine-2-carboxylic acid 4-trifluoromethyl-benzylamide]
IC50 [1]: > 1000 nM
IC50 [2]: > 1000 nM

CC(C)c1ccc(S(=O)(=O)N2CCN(C3=NCCS3)CC2C(=O)NCc2ccc(C(F)(F)F)cc2)cc1 (stereo not drawn) [Example 112, 4-(4,5-dihydro-thiazol-2-yl)-1-(4-isopropyl-benzenesulfonyl)-piperazine-2-carboxylic acid 4-trifluoromethyl-benzylamide]
IC50 [1]: > 1000 nM
IC50 [2]: > 1000 nM

CN(C)c1ccc(CNC(=O)C2CN(C(=O)CCN3CCOCC3)CCN2S(=O)(=O)c2ccc(I)cc2)cc1 (stereo not drawn) [Example 113, 1-(4-iodo-benzenesulfonyl)-4-(3-morpholin-4-yl-propionyl)-piperazine-2-carboxylic acid 4-dimethylamino-benzylamide]
IC50 [1]: > 1000 nM
IC50 [2]: > 1000 nM
